The text below walks through data of US20050137807A1, “Method of visualization of the ADME properties of chemical substances” (priority 2003, published 2005).

For series [1] the following is noted: cited from earlier work.
For series [2] the following is noted: cited from earlier work. The source holds these as a separate data set.
Series [3] is described as follows: membrane affinity as a measure of the lipophilicity (TRANSIL technology). The class given is physicochemical.
The next series has as its target human serum albumin (Homo sapiens, UniProt P02768). As to the kind of experiment: binding constant to human serum albumin (TRANSIL technology). From the text: The effective molecular weight (MW) is obtained simply from the respective empirical formula of the substance. The waters solubilities and the typical administered dosages of these commercially available products are furthermore known from the literature.
The ADME maps in FIGS. 5 to 10 show by way of example a selection of commercially available pharmaceutical substances. The substance names and the associated experimental measurement values for their physicochemical properties are summarised in Table 1.

The conditions of series [4]: water solubility, from the literature; cited from earlier work.
The conditions of series [5]: in vivo; cited from earlier work.
The mark [6] stands for this setting: log binding constant to human serum albumin, TRANSIL.

Converted amounts (≈) assume the structure as drawn.

Sequence of human serum albumin (P02768 25-609): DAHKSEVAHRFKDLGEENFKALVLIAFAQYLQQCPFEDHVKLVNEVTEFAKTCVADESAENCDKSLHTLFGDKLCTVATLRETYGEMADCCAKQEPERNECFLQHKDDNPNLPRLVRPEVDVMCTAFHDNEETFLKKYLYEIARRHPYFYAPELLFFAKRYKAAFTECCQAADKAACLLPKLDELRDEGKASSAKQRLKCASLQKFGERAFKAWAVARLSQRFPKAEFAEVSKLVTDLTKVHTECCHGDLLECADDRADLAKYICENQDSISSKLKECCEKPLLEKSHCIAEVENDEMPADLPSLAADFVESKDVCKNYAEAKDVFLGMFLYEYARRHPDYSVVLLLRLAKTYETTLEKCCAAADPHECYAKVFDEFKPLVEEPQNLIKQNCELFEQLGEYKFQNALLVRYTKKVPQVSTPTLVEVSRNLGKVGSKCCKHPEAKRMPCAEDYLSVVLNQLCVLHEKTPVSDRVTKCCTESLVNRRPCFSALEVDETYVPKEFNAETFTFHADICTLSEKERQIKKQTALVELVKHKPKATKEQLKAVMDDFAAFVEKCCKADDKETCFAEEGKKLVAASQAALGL

In the case of `COC(=O)c1ccc(C(F)(F)F)nc1S(=O)(=O)NC(=O)Nc1nc(OC)cc(OC)n1` [flupyrsulfuron-methyl-sodium], in series [1], the logP was 1.3. Besides, the pKa in series [2] is given as 4.9.

Take `CCC(C)n1c(=O)[nH]c(C)c(Br)c1=O` (stereo not shown) [bromacil]: the logP in series [1] is on record as 1.88. In addition, in series [2], the pKa is recorded as 9.27.

On to `COC(=O)c1ccccc1S(=O)(=O)NC(=O)Nc1nc(C)cc(C)n1` [sulfometuron-methyl], for which the logP in series [1] is given as 1.4. Besides, the pKa in series [2] is 5.2.

With `CCOC(=O)c1ccccc1S(=O)(=O)NC(=O)Nc1nc(Cl)cc(OC)n1` [chlorimuron-ethyl], in series [1], the logP is 2.7. The pKa in series [2] was 4.2.

As to `Cc1cc(C)nc(NC(=O)NS(=O)(=O)c2ccccc2C(=O)O)n1` [sulfometuron], in series [1], the logP was −0.51. In addition, the pKa in series [2] is 5.2.

Turning to `COC(=O)c1cc(Oc2ccc(Cl)cc2Cl)ccc1[N+](=O)[O-]` [bifenox], the logP in series [1] is given as 4.5. Besides, in series [2], the pKa is 13.8.

As for `C[C@@H](Oc1ccc(Cl)cc1Cl)C(=O)O` [dichlorprop-P], in series [2], the pKa is listed as 3.67.

For `COc1nc(C)nc(NC(=O)NS(=O)(=O)c2ccsc2C(=O)O)n1` [thifensulfuron], the logP in series [1] is reported as 0.02. In series [2], the pKa is on record as 4.

Consider `COc1nc(C)nc(=NC(=O)NS(=O)(=O)c2ccccc2C(=O)O)[nH]1` [metsulfuron], for which the logP in series [1] was 2. The pKa in series [2] was 3.3.

On to `COc1cc(OC)nc(NC(=O)NS(=O)(=O)Cc2ccccc2C(=O)O)n1` [bensulfuron], for which, in series [1], the logP is 0.62. In addition, in series [2], the pKa is recorded as 5.2.

With `O=C(O)c1c(Cl)ccc2cc(Cl)cnc12` [quinclorac], in series [1], the logP was 3.6. The pKa in series [2] was 4.34.

In the case of `CC(Oc1ccc(Oc2ccc(Cl)cc2Cl)cc1)C(=O)O` (stereo not shown) [diclofop], the logP in series [1] is given as 4.5. Besides, the pKa in series [2] is reported as 3.43.

On to `CON(C)C(=O)Nc1ccc(Cl)cc1` [monolinuron], for which the logP in series [1] is given as 2.2. In series [2], the pKa is listed as 13.8.

For `COC(=O)c1c(Cl)nn(C)c1S(=O)(=O)NC(=O)Nc1nc(OC)cc(OC)n1` [halosulfuron-methyl], in series [1], the logP is on record as 2.9. Further, the pKa in series [2] was 3.44.

In series [3], `COc1cccc2c1C(=O)c1c(O)c3c(c(O)c1C2=O)C[C@@](O)(C(=O)CO)C[C@@H]3O[C@H]1C[C@H](N)[C@H](O)[C@H](C)O1` [Doxorubicin] showed a LogMA of 2.322. The LogHSA on human serum albumin (setting [6]) is −1.886. Besides, in series [4], the Solubility is 93 µg/mL (≈ 171 µM).

On to `Cc1cc(Cl)ccc1OCC(=O)O` [MCPA], for which the logP in series [1] is recorded as 2.75. The pKa in series [2] is on record as 3.07.

On to `COc1nc(C)nc(NC(=O)NS(=O)(=O)c2ccccc2OCCCl)n1` [triasulfuron], for which the logP in series [1] was 1.6. For the same compound, the pKa in series [2] is recorded as 4.64.

Take `COc1nc(C)nc(N(C)C(=O)NS(=O)(=O)c2ccccc2C(=O)O)n1` [tribenuron]: the logP in series [1] is recorded as −0.44. Besides, in series [2], the pKa is recorded as 5.

For the compound Oxacepam, the LogMA in series [3] came to 2.342. Moreover, the LogHSA on human serum albumin (setting [6]) was −4.000. The Solubility in series [4] was 179 µg/mL.

The compound `CN(C)CCCN1c2ccccc2CCc2ccccc21` [Imipramine] yielded a LogMA in series [3] of 3.190. For the same compound, the LogHSA on human serum albumin (human) is −3.301. Moreover, the Solubility in series [4] was 1 µg/mL (≈ 3.57 µM).

For itraconazoles, the passive oral absorption result in series [5] is recorded as “can be passively absorbed well”.

On to `COc1cc(OC)nc(NC(=O)NS(=O)(=O)c2ncccc2C(=O)N(C)C)n1` [nicosulfuron], for which the logP in series [1] is 0.5. Besides, the pKa in series [2] is 4.6.

In series [3], `C[C@]12CC[C@H]3[C@@H](CCC4=CC(=O)CC[C@@]43C)[C@@H]1CC[C@@H]2O` [Testosteron] gave a LogMA of 2.826. Moreover, the LogHSA at human serum albumin (setting [6]) is −4.912. In addition, the Solubility in series [4] was 68 µg/mL (≈ 236 µM).

`Cc1nccn1CC1CCc2c(c3ccccc3n2C)C1=O` (stereo not shown) [Ondansetron] had a LogMA in series [3] of 2.672. Further, the LogHSA at human serum albumin (human) is recorded as −3.237. The Solubility in series [4] is 5.7 µg/mL (≈ 19.4 µM).

In the case of `COc1cc(Cl)nc(NC(=O)NS(=O)(=O)c2ccccc2C(=O)O)n1` [chlorimuron], the logP in series [1] is given as 0.11. For the same compound, in series [2], the pKa was 4.2.

For the compound `O=C(O)COc1ccc(Cl)cc1Cl` [2,4-D], the logP in series [1] is 2.58. Further, the pKa in series [2] is reported as 2.73.

Take `CN(C)C(=O)Nc1ccc(Cl)c(Cl)c1` [diuron]: the logP in series [1] is 2.85. In addition, the pKa in series [2] is on record as 13.8.

`CC(C)(C)NC[C@H](O)COc1nsnc1N1CCOCC1` [Timolol] came in with a LogMA in series [3] of 1.477. Also, the LogHSA at human serum albumin (human) is −2.000. For the same compound, the Solubility in series [4] is 2741 µg/mL (≈ 8660 µM).

In turn, `CCCN(CCC)S(=O)(=O)c1ccc(C(=O)O)cc1` [Probenecid] had a LogMA in series [3] of 1.322. Further, the LogHSA on human serum albumin (human) is −4.004. The Solubility in series [4] was 27.1 µg/mL (≈ 95 µM).

Consider `O=C(Nc1nc(OC(F)F)cc(OC(F)F)n1)NS(=O)(=O)c1ccccc1C(=O)O` [primisulfuron], for which the logP in series [1] was 0.06. Moreover, the pKa in series [2] is given as 3.47.

With `COc1cc(OC)nc(NC(=O)NS(=O)(=O)N(C)S(C)(=O)=O)n1` [amidosulfuron], in series [1], the logP is on record as 1.63. Besides, in series [2], the pKa is 3.58.

Broadly, the logP is a log measure of how a compound divides between an organic and an aqueous phase. In general, pKa refers to the pH at which an ionisable group is half protonated. The term Solubility denotes the concentration that dissolves in the medium under given conditions.
